Measured values from patent US12427210B2, “Compounds comprising a fibroblast activation protein ligand and use thereof” (priority 2019, dated 2025).
Like-named read-outs stand apart in the source and are kept apart here. Numbered stars: 1 amine (or outer) side, 2 acyl side, 3 side chain; on linkers, the order of the positions; unused ones are H or OH. Bridge positions count the residues as written; N and C are the ends. Peptide text beside a SMILES is read from it. * marks the point of attachment. X1 = O=C(O)CN1CCN(CC(=O)O)CCN(CC(=O)N2CCN(Cc3cc(C[*:1])cc(C[*:2])c3)CC2)CCN(CC(=O)O)CC1; Hexanoyl = CCCCCC(=O)*

How the values were obtained:
PDE4D2 (h) = PDE4D2 (h) (Homo sapiens, UniProt Q08499); test: biochemical; conditions: read-out: % Inhibition of Specific Binding
Cathepsin V = Cathepsin V (Homo sapiens, UniProt O60911); test: biochemical; conditions: read-out: Percentage inhibition (%)
D2S (h) = D2S (h) (Homo sapiens, UniProt P14416); test: biochemical; conditions: read-out: % Inhibition of Specific Binding
Cathepsin B = Cathepsin B (Homo sapiens, UniProt P07858); test: biochemical; conditions: read-out: Percentage inhibition (%)
CCK1 (CCKA) (h) = CCK1 (CCKA) (h) (Homo sapiens, UniProt P32238); test: biochemical; conditions: read-out: % Inhibition of Specific Binding
COX2(h) = COX2(h) (Homo sapiens, UniProt P35354); test: biochemical; conditions: read-out: % Inhibition of Specific Binding
A2A (h) = A2A (h) (Homo sapiens, UniProt P29274); test: biochemical; conditions: read-out: % Inhibition of Specific Binding
V1a (h) = V1a (h) (Homo sapiens, UniProt P37288); test: biochemical; conditions: read-out: % Inhibition of Specific Binding
[1] = system: serine protease NS3 (a.a. 3-181) from Hepatitis C virus genotype 1b
KV channel = conditions: 10 μM
FAP = FAP (Homo sapiens, UniProt Q12884); test: biochemical; conditions: read-out: Percentage inhibition (%)
Cathepsin S = Cathepsin S (Homo sapiens, UniProt P25774); test: biochemical; conditions: read-out: Percentage inhibition (%)
[2] = target: T1, Ubiquitin carboxyl-terminal hydrolase 2 (Homo sapiens, UniProt O75604); test: biochemical; conditions: read-out: Percentage inhibition (%)
T1 sequence (O75604 1-605): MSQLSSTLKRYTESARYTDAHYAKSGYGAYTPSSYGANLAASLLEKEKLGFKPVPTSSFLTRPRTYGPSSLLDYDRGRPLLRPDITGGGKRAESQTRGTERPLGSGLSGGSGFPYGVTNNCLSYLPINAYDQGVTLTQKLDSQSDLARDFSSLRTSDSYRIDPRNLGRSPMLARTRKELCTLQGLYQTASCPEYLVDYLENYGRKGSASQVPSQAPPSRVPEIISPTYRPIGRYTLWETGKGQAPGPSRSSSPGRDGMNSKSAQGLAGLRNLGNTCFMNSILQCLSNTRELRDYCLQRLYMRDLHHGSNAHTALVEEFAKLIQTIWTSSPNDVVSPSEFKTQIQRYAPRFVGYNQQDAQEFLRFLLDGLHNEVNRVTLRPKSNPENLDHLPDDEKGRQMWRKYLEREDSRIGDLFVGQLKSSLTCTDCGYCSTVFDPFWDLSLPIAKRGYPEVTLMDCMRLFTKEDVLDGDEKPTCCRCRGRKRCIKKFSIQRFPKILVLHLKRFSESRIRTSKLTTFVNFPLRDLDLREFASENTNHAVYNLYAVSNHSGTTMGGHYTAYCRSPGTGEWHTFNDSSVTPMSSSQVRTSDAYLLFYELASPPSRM

[3] = system: serine protease NS3 (a.a. 3-181) from Hepatitis C virus genotype 1b (mutant R155K)
Cathepsin F = target: T2, Cathepsin F (Homo sapiens, UniProt Q9UBX1); test: biochemical; conditions: read-out: Percentage inhibition (%)
T2 sequence (Q9UBX1 271-484): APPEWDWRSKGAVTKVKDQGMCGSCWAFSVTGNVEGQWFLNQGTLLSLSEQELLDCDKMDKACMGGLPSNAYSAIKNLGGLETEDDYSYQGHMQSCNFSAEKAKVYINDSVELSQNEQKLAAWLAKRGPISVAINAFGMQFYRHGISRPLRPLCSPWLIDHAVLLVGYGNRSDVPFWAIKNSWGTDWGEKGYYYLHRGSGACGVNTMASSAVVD

Deubiquitinase OTUD6B = target: T3, Deubiquitinase OTUD6B (Homo sapiens, UniProt Q8N6M0); test: biochemical; conditions: read-out: Percentage inhibition (%)
T3 sequence (Q8N6M0 1-293): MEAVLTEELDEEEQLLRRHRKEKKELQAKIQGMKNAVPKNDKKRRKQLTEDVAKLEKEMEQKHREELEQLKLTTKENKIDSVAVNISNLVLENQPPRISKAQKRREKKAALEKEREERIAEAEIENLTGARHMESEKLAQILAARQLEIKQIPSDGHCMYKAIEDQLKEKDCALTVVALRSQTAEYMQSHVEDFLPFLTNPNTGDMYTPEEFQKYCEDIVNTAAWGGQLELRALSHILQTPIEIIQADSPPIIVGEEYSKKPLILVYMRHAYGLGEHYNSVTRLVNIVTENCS

alpha 1A (h) = target: T4, alpha 1A (h) (Homo sapiens, UniProt P35348); test: biochemical; conditions: read-out: % Inhibition of Specific Binding
T4 sequence (P35348 1-466): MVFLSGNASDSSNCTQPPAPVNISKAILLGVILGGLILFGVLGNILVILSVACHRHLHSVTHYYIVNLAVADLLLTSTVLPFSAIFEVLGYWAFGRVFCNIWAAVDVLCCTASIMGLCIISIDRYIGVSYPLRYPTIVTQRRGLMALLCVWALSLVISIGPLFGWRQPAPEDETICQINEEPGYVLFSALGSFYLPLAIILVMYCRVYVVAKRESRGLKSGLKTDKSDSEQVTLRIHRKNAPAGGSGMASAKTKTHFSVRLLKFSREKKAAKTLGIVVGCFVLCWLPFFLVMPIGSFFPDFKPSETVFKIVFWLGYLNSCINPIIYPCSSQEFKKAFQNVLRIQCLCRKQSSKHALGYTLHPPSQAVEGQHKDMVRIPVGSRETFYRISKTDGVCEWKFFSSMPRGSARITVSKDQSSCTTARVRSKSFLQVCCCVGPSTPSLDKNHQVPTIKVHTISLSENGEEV

[4] = system: Ca2+ channel (L, dihydropyridine site); conditions: 10 μM
GR (h) = GR (h) (Homo sapiens, UniProt P04150); test: biochemical; conditions: read-out: % Inhibition of Specific Binding
alpha 2A (h) = alpha 2A (h) (Homo sapiens, UniProt P08913); test: biochemical; conditions: read-out: % Inhibition of Specific Binding
alpha 2A (h), sequence (P08913 whole entry): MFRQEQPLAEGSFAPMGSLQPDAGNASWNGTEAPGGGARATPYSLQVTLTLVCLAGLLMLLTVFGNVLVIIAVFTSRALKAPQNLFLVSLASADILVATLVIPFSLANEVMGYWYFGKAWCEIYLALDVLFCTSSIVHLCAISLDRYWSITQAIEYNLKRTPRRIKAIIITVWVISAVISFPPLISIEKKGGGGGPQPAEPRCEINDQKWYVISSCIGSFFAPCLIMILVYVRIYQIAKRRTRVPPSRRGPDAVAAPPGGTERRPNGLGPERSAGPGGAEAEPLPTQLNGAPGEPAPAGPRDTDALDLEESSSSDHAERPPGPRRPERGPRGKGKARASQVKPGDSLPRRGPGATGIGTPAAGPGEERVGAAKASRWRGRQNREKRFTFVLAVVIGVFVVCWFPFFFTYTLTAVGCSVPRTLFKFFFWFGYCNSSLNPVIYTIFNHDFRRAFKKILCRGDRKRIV

FAP, sequence (Q12884 whole entry): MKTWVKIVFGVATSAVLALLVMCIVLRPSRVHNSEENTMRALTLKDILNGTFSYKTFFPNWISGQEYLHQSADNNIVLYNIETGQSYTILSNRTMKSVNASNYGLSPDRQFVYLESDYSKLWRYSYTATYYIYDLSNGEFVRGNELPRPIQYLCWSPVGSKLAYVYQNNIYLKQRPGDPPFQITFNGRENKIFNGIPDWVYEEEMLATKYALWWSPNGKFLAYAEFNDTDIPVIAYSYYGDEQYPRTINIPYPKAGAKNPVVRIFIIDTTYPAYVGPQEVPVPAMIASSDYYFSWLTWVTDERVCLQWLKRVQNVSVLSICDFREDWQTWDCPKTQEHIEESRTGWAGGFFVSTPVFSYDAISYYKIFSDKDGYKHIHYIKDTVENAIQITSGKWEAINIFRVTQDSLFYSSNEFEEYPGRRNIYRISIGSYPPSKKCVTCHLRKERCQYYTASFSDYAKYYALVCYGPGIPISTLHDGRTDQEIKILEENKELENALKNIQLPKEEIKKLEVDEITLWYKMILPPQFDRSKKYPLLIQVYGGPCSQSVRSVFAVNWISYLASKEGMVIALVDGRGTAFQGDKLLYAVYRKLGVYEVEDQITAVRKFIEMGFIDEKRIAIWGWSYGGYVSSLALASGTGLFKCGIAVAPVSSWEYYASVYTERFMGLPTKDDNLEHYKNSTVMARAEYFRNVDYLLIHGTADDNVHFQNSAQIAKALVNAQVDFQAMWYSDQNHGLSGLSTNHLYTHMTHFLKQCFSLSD
Cathepsin V, sequence (O60911 114-334, species assumed): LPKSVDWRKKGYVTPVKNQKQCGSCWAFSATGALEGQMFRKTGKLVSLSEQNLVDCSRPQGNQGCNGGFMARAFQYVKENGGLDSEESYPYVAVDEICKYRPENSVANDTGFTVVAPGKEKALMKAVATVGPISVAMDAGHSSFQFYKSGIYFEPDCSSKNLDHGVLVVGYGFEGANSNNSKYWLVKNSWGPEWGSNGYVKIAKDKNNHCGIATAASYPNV
Cathepsin S, sequence (P25774 115-331): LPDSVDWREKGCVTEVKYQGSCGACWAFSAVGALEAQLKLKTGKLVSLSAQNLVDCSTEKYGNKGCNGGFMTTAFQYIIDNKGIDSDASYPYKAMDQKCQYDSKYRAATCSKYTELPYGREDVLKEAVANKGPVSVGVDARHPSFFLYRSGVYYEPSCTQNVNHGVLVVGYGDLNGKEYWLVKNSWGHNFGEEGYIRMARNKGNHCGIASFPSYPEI
V1a (h), sequence (P37288 whole entry): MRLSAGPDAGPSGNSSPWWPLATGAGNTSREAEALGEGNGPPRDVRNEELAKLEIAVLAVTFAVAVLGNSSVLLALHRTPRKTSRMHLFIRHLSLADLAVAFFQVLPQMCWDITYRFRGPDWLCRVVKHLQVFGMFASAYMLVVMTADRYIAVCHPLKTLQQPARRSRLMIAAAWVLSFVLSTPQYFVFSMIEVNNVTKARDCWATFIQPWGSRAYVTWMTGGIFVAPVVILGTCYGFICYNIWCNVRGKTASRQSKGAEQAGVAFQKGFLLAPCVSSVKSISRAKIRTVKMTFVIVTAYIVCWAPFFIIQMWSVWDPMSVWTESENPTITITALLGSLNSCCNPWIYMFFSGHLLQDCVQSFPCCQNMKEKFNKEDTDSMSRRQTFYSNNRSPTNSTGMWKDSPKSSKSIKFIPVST
CCK1 (CCKA) (h), sequence (P32238 whole entry): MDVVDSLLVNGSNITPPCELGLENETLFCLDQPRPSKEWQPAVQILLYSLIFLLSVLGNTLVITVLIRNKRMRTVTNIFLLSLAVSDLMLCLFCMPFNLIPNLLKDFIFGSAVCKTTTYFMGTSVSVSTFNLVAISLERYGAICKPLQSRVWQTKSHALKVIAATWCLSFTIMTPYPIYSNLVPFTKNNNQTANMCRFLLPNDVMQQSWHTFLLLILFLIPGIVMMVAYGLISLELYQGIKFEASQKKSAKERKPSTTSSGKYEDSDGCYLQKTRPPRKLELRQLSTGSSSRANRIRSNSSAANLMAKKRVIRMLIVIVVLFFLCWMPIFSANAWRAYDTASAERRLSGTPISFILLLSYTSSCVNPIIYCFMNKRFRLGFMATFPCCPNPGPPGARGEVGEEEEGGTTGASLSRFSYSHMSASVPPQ
PDE4D2 (h), sequence (Q08499 303-809): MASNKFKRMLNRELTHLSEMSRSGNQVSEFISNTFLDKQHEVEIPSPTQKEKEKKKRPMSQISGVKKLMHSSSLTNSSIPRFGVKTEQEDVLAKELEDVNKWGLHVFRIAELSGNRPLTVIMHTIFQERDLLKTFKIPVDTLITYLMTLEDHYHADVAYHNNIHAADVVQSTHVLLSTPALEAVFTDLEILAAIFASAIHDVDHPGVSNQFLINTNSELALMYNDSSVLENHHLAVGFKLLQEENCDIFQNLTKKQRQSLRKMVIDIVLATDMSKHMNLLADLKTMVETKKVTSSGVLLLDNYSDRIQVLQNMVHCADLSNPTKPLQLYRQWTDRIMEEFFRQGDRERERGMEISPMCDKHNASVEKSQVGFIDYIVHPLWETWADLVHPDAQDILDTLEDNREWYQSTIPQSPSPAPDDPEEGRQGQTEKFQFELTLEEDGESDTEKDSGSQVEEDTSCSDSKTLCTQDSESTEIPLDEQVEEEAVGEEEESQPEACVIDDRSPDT
COX2(h), sequence (P35354 18-604): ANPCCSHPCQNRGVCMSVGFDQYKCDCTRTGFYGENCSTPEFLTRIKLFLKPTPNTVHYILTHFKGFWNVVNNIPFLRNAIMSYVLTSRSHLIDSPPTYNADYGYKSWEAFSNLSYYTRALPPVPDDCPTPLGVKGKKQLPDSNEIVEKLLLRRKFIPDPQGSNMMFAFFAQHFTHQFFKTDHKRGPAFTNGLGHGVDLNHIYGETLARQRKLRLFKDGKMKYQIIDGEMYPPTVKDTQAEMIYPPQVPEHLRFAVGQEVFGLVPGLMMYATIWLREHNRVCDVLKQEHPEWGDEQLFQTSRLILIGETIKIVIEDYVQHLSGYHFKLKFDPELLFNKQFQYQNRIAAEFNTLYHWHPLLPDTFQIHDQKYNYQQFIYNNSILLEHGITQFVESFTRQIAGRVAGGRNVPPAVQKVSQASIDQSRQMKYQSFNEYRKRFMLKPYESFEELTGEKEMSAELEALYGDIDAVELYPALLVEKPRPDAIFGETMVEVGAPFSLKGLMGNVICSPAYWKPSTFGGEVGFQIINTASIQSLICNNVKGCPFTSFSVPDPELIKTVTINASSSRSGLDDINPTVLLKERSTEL
GR (h), sequence (P04150 whole entry): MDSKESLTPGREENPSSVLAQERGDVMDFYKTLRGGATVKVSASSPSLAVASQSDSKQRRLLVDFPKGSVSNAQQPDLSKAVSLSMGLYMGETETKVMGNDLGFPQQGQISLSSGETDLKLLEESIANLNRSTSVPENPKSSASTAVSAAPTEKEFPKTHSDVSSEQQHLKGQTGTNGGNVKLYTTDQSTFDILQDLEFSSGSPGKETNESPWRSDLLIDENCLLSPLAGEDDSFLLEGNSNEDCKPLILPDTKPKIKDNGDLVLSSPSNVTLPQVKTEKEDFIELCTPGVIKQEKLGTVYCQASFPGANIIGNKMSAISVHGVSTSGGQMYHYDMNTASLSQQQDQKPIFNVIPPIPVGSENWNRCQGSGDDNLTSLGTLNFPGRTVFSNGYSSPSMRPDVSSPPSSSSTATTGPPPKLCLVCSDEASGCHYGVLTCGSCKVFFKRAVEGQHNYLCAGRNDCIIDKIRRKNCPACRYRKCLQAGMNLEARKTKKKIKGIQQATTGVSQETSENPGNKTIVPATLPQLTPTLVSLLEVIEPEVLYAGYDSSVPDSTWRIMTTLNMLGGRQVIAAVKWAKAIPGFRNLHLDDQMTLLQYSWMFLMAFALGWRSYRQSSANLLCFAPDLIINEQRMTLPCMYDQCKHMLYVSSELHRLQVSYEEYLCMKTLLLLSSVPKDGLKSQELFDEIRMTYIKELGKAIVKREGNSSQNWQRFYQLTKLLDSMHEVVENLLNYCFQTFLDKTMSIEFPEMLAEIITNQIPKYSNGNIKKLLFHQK
D2S (h), sequence (P14416 1-414 isoform P14416-2): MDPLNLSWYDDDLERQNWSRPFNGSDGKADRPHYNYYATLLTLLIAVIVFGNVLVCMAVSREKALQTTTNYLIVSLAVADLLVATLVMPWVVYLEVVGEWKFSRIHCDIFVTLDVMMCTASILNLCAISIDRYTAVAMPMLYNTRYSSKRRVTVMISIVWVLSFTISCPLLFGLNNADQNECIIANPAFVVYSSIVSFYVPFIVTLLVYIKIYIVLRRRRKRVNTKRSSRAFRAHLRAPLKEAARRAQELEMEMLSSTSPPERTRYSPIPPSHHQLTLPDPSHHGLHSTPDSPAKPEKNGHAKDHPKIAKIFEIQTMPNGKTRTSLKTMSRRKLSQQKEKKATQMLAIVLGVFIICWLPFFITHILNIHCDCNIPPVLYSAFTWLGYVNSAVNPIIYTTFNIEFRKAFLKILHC

## CCCCCC(=O)N[C@H]1CSCc2cc(cc(CN3CCN(C(=O)CN4CCN(CC(=O)O)CCN(CC(=O)O)CCN(CC(=O)O)CC4)CC3)c2)CSC[C@@H](C(=O)N[C@@H](CC(=O)O)C(N)=O)NC(=O)[C@H](Cc2ccccc2)NC(=O)[C@H](CCC(N)=O)NC(=O)[C@H]([C@@H](C)O)NC(=O)[C@@H]2CCCN2C(=O)[C@@H]2CCCN2C1=O [Compound 3BP-3407, Hex-[Cys(tMeBn(DOTA-PP))-Pro-Pro-Thr-Gln-Phe-Cys]-Asp-NH2] (Hexanoyl-CPPTQFCD-NH2; linker 1-7 via X1)
PDE4D2 (h)
  inhibition at 10 µM: -5%
Cathepsin V
  inhibition at 1 µM: 1%
  inhibition at 10 µM: -18%
D2S (h)
  inhibition at 10 µM: 15%
Cathepsin B
  inhibition at 1 µM: 26%
  inhibition at 10 µM: 36%
CCK1 (CCKA) (h)
  inhibition at 10 µM: 24%
COX2(h)
  inhibition at 10 µM: -14%
A2A (h)
  inhibition at 10 µM: -4%
V1a (h)
  inhibition at 10 µM: 16%
[1]; 1 μM
  Percentage inhibition (%): 1%
[1]; 10 μM
  Percentage inhibition (%): 5%
KV channel
  % Inhibition of Specific Binding: −5%
FAP
  inhibition at 1 µM: 98%
  inhibition at 10 µM: 99%
Cathepsin S
  inhibition at 1 µM: 3%
  inhibition at 10 µM: 18%
[2]
  inhibition at 1 µM: 3%
  inhibition at 10 µM: 7%
[3]; 1 μM
  Percentage inhibition (%): −2%
[3]; 10 μM
  Percentage inhibition (%): 5%
Cathepsin F
  inhibition at 1 µM: -3%
  inhibition at 10 µM: -24%
Deubiquitinase OTUD6B
  inhibition at 1 µM: 2%
  inhibition at 10 µM: 15%
Alpha 1A (h)
  inhibition at 10 µM: 2%
[4]
  % Inhibition of Specific Binding: 42%
GR (h)
  inhibition at 10 µM: -2%
Alpha 2A (h)
  inhibition at 10 µM: -9%

## CCCCCC(=O)N[C@H]1CSCc2cc(CSCCNC(=O)CN3CCN(CC(=O)O)CCN(CC(=O)O)CCN(CC(=O)O)CC3)cc(c2)CSC[C@@H](C(=O)O)NC(=O)[C@H](Cc2ccccc2)NC(=O)[C@H](CCC(N)=O)NC(=O)[C@H]([C@@H](C)O)NC(=O)[C@@H]2CCCN2C(=O)[C@@H]2CCCN2C1=O [Compound 3BP-3554, Hex-[Cys(tMeBn(DOTA-AET))-Pro-Pro-Thr-Gln-Phe-Cys]-OH]
PDE4D2 (h)
  inhibition at 10 µM: -4%
Cathepsin V
  inhibition at 1 µM: -1%
  inhibition at 10 µM: -1%
D2S (h)
  inhibition at 10 µM: -7%
Cathepsin B
  inhibition at 1 µM: 1%
  inhibition at 10 µM: 2%
CCK1 (CCKA) (h)
  inhibition at 10 µM: 16%
COX2(h)
  inhibition at 10 µM: -22%
A2A (h)
  inhibition at 10 µM: -16%
V1a (h)
  inhibition at 10 µM: 1%
[1]; 1 μM
  Percentage inhibition (%): −5%
[1]; 10 μM
  Percentage inhibition (%): −9%
KV channel
  % Inhibition of Specific Binding: 4%
FAP
  inhibition at 1 µM: 97%
  inhibition at 10 µM: 99%
Cathepsin S
  inhibition at 1 µM: -10%
  inhibition at 10 µM: -23%
[2]
  inhibition at 1 µM: 0%
  inhibition at 10 µM: -1%
[3]; 1 μM
  Percentage inhibition (%): −1%
[3]; 10 μM
  Percentage inhibition (%): 0%
Cathepsin F
  inhibition at 1 µM: -23%
  inhibition at 10 µM: -25%
Deubiquitinase OTUD6B
  inhibition at 1 µM: 0%
  inhibition at 10 µM: 0%
Alpha 1A (h)
  inhibition at 10 µM: -12%
[4]
  % Inhibition of Specific Binding: 54%
GR (h)
  inhibition at 10 µM: 0%
Alpha 2A (h)
  inhibition at 10 µM: 2%
